This is an account of results in patent US20020177526A1, “Insecticidal seed coating” (priority 1996, published 2002).

Assay [1] has as its system corn rootworm larvae. As to the kind of experiment: Corn rootworm greenhouse bioassay (2 gal pot). It counts as in vivo. Particulars: Iowa scale 1-6. The source says:
(§1) Hybrid corn seeds with and without an insecticidal coating are planted in Nebraska, Iowa, Minnesota, Wisconsin and Illinois to determine the efficacy of various coated seed treatments in standard tests. All seeds contain a Captan pretreatment whether or not a coating is applied. Additionally, an overcoat layer is applied to all coated seed which comprises the coating described in Example 2. Banded granular insecticides are applied at the manufactures label rates using granular insecticide applicators. Plot size for each treatment is two ten foot rows spaced 30 inches apart with four replications of each treatment at each location. Non-diaposing 1st instar Western Corn Rootworm larvae are side dressed on both sides of the corn plants in the row at a rate of 800 eggs per foot of row. Application of the insect larvae is made when the corn seedlings are approximately at the two leaf stage. The placement of the larvae is approximately two inches to the side of the corn plants and two inches below the soil surface. Plots are maintained with normal cultural practices until the corn plants reach the flowering stage. At late brown silk stage, 10 sequential roots from each plot are obtained. The corn stalks are cut at approximately 12 inches above the soil line. Each corn root is washed and after washing the roots are rated on a scale of 1-6 using the Iowa Root Rating Method developed at Iowa State University (Hills and Peters, 1971) and used commonly throughout the corn belt. In the rating, 1=no damage or only a few minor feeding scars; 2=feeding scars evident but no roots eaten off to within 1½ inch of the plant; 3=several roots eaten off to within 1½ inch of the plant but never the equivalent of an entire node of roots is destroyed; 4=one root node completely destroyed; 5=two root nodes completely destroyed and 6=three or more root nodes destroyed. A destroyed root is defined as a root that has been pruned to within 1½ inch of the base. […] In addition, a growth chamber and a greenhouse bioassay was used to determine the effect of insecticidal seed coating on corn rootworm control. For growth chamber assay, corn seed was planted in a 16 oz cup with garden Jiffymix, and allowed to grow for two weeks. Twenty neonate corn rootworm larvae are placed in the Jiffymix near corn roots and allowed to feed for approximately 2 weeks. The larvae are then screened out and the % mortality of the larvae is determined. Each corn root is washed and after washing the roots are rated on a scale of 1-6 using the Iowa Root Rating Method developed at Iowa State University (Hills and Peters, 1971). Some of the results are indicated below in Table 3. The greenhouse assay use 2 gallon pot with 20 mesh corn field soil. Forty corn rootworm larvae are placed in each pot when corn plant was at 4 to 5-leaf stage, and allowed to feed for 2 to 3 weeks. Each corn root is washed and after washing the roots are rated on a scale of 1-6 using the Iowa Root Rating Method developed at Iowa State University (Hills and Peters, 1971). Some of the results are indicated below in Table 3.
(§2) Maize seed is treated as described in Examples 1 and 2. A combination of methyl cellulose and polyvinyl alcohol is used as a binder and Celite 266 is used as filler for insecticide solution, which contains the compound of formula II as the insecticide. Bioassay methods are as described in Example 4. Root rating was based on the Iowa State 1-6 scale.

Assay [2] relates to corn rootworm larvae. As to the kind of experiment: Corn rootworm growth chamber bioassay (16 oz cup). It is filed as in vivo. Particulars: Iowa scale 1-6.
Text: as §1, §2

With `CN1COCN(Cc2cnc(Cl)s2)/C1=N/[N+](=O)[O-]` [Formula II], the “Greenhouse (2 gal pot) Root Rating” value in the assay on corn rootworm larvae [1] (0.6 mg/seed) is recorded as 2.73; in the assay on corn rootworm larvae [1] (1.2 mg/seed), 3.08; in the assay on corn rootworm larvae [1] (1.5 mg/seed) it was 2.96; in the assay with corn rootworm larvae [1] (2.0 mg/seed), 2.90. Moreover, the “Growth Chamber (16 oz cup) Root Rating” value was determined as 5.30 with corn rootworm larvae [2] (0.01 mg/seed (combination: plus Raze 0.13 mg/seed)); 4.30 in the assay with corn rootworm larvae [2] (0.03 mg/seed); 2.70 in the assay with corn rootworm larvae [2] (0.3 mg/seed (combination: plus Raze 0.13 mg/seed)); 2.10 in the assay with corn rootworm larvae [2] (0.6 mg/seed); 2.30 with corn rootworm larvae [2] (0.8 mg/seed); 2.10 in the assay on corn rootworm larvae [2] (1.0 mg/seed).

Consider `Cc1c(F)c(F)c(COC(=O)[C@@H]2[C@H](/C=C(\Cl)C(F)(F)F)C2(C)C)c(F)c1F` [Tefluthrin 50%, tefluthrin, reference compound], for which the “Greenhouse (2 gal pot) Root Rating” value in the assay with corn rootworm larvae [1] (1.0 mg/seed) is listed as 3.52. In the assay on corn rootworm larvae [2] (1.0 mg/seed), the “Growth Chamber (16 oz cup) Root Rating” value is 2.30.
